The values that follow come from EP0652290A1, “Method for regulation of NF-kB” (YISSUM RESEARCH DEVELOPMENT COMPANY OF THE HEBREW …, priority 1993, dated 1995).

The subject of experiment [1] is NF-κB. Put plainly: NF-κB activation by EMSA, 70Z/3 cells stimulated with PMA, IL-1β or LPS. The format is cell-based. Conditions: for IC90: 30 min pretreatment, stimulated by PMA, EMSA, read-out: IC90, 90% inhibitory concentration, activation of NF-κB, 70Z/3; for induction of NF-κB activity in response to PMA: 25 µM. In general terms: Mobility shift assays separate free from complexed probe on a gel.

Experiment [2] concerns IκBα. As to the kind of experiment: IκBα level and stability by Western blot in 70Z/3 cells. The format is cell-based. (A western blot detects proteins with antibodies after separation by electrophoresis.)
Experiment [3] has as its system 70Z/3 cells. As to the kind of experiment: Inhibition of protein synthesis in 70Z/3 cells. Particulars: read-out: protein synthesis is inhibited. The format is cell-based. Here is the method:
70Z/3 cells were treated with 25 µg/ml cycloheximide (Sigma). The protein synthesis inhibitor cycloheximide (CHX) activates NF-κB in 70Z/3 cells. At 10 µg/ml, protein synthesis is inhibited to 90% in 70Z/3 cells. Cell culture, extract preparation, EMSA, SDS-PAGE and Western blotting were as described above in Example 1. Densitometric scanning was done with a Howtek Scanmaster 3 and data analyzed by the software Quantity One Version 2.2.

In experiment [4] the test system is NF-κB. Put plainly: NF-κB activation by TNF-α in various other cell lines. Type of experiment: cell-based. Conditions: various other cells lines.
For experiment [5], the system named is IκBα. Put plainly: IκBα phosphorylation and degradation by Western blot, Jurkat cells stimulated with PMA and Ca⁺⁺ ionophore. Type of experiment: cell-based. Particulars: 25 µM TPCK or 400 ng/ml CsA 30 min, 100 µM PDTC 1 hour before PMA + Ca⁺⁺ ionophore. Here is the method:
Subcellular protein extracts were prepared essentially according to Beg, A.A. et al., supra. Following 20 minutes stimulation of Jurkat cells, cytosolic extracts (50 µg/point) were analyzed by Western blot, and nuclear extracts (5 µg/point) by EMSA, as described (Henkel, T., et al., Nature, 365:182-185, 1993).
Rabbit anti-IκBα was prepared against the GST-IκBα fusion protein by standard methods. The specifity of the antibodies was confirmed in competition assays using recombinant IκBα protein.
On the basis of the results in Example 3, phosphorylation of IκBα, in parallel to NF-κB activation, is induced according to the physiological requirements for T cell activation. Cell stimulation and extract preparation was as described above. […] Duration of Jurkat cell stimulation with PMA (10 ng/ml) and Ca⁺⁺ ionophore (1µM) was determined by Western blot analysis. […]
N-acetyl-Leu-Leu-Norleucinal (AcLLnL) is a reversible non-alkylating proteosome inhibitor not likely to disturb post-translation modification events. […] Anti-Rel A serum was a rabbit polyclonal antiserum prepared against the C-terminus portion of Rel A. In FIGURE 6a, cells were pretreated for 4 hours with 50 µg/ml AcLLnL, stimulated with PMA (10 ng/ml) and Ca⁺⁺ ionophore (1 µM) for the time intervals indicated and analyzed by Western blot. […]

In experiment [6] the test system is NF-κB. Put plainly: NF-κB activation by EMSA, Jurkat cells stimulated with TNF-α. Type of experiment: cell-based. Particulars: for IC90: Homo sapiens, Jurkat cells, 30 min pretreatment, stimulated by TNF-α, EMSA, read-out: IC90, 90% inhibitory concentration, activation of NF-κB, Jurkat; for induction of NF-κB DNA-binding activity in response to PMA and TNF-α: Jurkat (TNF-α) and 70Z/3 (PMA) cell cultures, even at high concentrations. Here is the method:
The functional significance of the inducible decay of IκBα for activation of NF-κB was tested by exposure of cell cultures to various protease inhibitors. Six distinct serine protease inhibitors with chymotrypsin-like specificity efficiently prevent the induction of NF-κB DNA-binding activity in response to PMA and TNF-α (Table 1). Constitutive DNA-binding activities, including Oct-1, were not affected and no significant cell death was observed by a dye-exclusion assay and phase-contrast microscopy at inhibitor concentrations preventing […] activation. Leupeptin, antipain and the trypsin inhibitor tosyl-Lys-methylester were not effective, even at high concentrations.

For experiment [7], the system named is NF-κB. As to the kind of experiment: HIV-LTR-Luc reporter activity in Jurkat cells. Type of experiment: cell-based. Conditions: stimulated 8 hours, PMA 10 ng/ml. Here is the method:
Jurkat cells were stimulated with the following reagents: (P), PMA (phorbol-12 myrislated 13-acetate), 10 ng/ml; (I), A23187 Ca⁺⁺ ionophore, 1µM; (3), anti-CD3 (OKT3), 5µg/ml; (28) anti-CD28 (monoclonal antibody 9.3), 3 µg/ml; (P/I), PMA + Ca⁺⁺ ionophore in IκBα transfected Jurkat cells; (NS) non-stimulated (0.1%, DMSO only).
The steps involved in the activation of NF-κB, include IκBα elimination through the appearance of the nuclear DNA binding activity, and the transcriptional activity. NF-κB activation was measured through the reporter activity of the HIV-LTR promoter, which is largely controlled by NF-κB in conjunction with the HIV Tat protein (Nabel, G., et al., Nature, 326:711-713, 1987). Jurkat cells were stimulated with the following reagents: (P), PMA (phorbol-12 myrislated 13-acetate), 10 ng/ml; (I), A23187 Ca⁺⁺ ionophore, 1µM; (3), anti-CD3 (OKT3), 5µg/ml; (28) anti-CD28 (monoclonal antibody 9.3), 3 µg/ml; (P/I), PMA + Ca⁺⁺ ionophore in IκBα transfected Jurkat cells; (NS) non-stimulated (0.1%, DMSO only). Jurkat cells were transfected by electroporation (Su, B., et al., supra) with 1 µg HIV-LTR-LUC (Israel, S., et al., Gene, 104:139-145, 1991) and 4 µg PBC-TAT. […] Following 30 hours transfection, the cells were stimulated for 8 hours and luciferase activity was determined using the Promega luciferase assay system.

Experiment [8] has as its system NF-κB. Put plainly: Dose response of NF-κB DNA binding (EMSA) in Hela cells stimulated with TNFα. Type of experiment: cell-based. How it is done: Hela cells were pretreated for 5 hours with the indicated concentration of peptide aldehyde inhibitor or left untreated and then stimulated with TNFα (15ng/ml) for 20 minutes. The cells were then harvested for whole cell extract preparation. Extracts were analyzed for NF-κB DNA binding activity by electrophoretic mobility shift assay (EMSA) and relative IκBα protein levels were measured by Western blot analysis as shown in FIGURE 9.
IC₅₀ for ZLLF was 3.4 µM and 12.1 µM for AcLLnL.

The subject of experiment [9] is IκBα. As to the kind of experiment: IκB degradation by Western blot in HeLa S3 or Hep G2 cells after TNFα, IL-1 or PMA. The format is cell-based, Human. Particulars: HeLa S3 or Hep G2, 4 hours pretreatment, 20 minutes. How it is done: Human HeLa S3 or Hep G2 cells were pretreated for 4 hours with the indicated peptide aldehyde prior to simulation with either TNFα (20ng/ml), IL-1(20 ng/ml) or PMA (100 µg/ml). The cells were harvested 20 minutes after induction and the extent of IκB degradation was examined via Western blot analysis using IκB specific antisera. FIGURE 7 summarizes the ability of related peptide aldehydes to block IκB degradation induced by a variety of agents which activate NF-κB. (+++) indicates greater than 85% inhibition, (++) indicates greater than 60% inhibition and (-) indicates no inhibition of IκB degradation was observed.

Where a SMILES comes first, the peptide text is derived from it. The star is where a group is joined. Cbz = O=C(OCc1ccccc1)*; CH2Cl = ClC* Bounds are passed on as bounds.

Turning to `C[C@@H]1C[C@@H]([C@H](O)CC2CC(=O)NC(=O)C2)C(=O)[C@@H](C)C1` [CHX, cycloheximide], in [1] (1 hour treatment of 70Z/3 cells with CHX, no PMA), the “DNA binding of NF-κB” value is listed as “induced only weakly”. Further, the “half-life of IκBα” value in experiment [2] (CHX-treated 70Z/3 cells, 25 µg/ml, no PMA) is recorded as “approximately 138 minutes”. Besides, the inhibition at 10 µg/mL in experiment [3] was determined as 90%.

Turning to `CC(C)C[C@H](NC(=O)OCc1ccccc1)C(=O)N[C@@H](Cc1ccc(O)cc1)C(=O)CCl` [Benzyloxycarbonyl-Leu-Tyr-chloromethylketone] (Cbz-Leu-Tyr-CH2Cl), the IC90 in [1] (70Z/3 cells) was 10 µM.

In the case of `Cc1ccc(S(=O)(=O)N[C@@H](Cc2ccccc2)C(=O)CCl)cc1` [TPCK, Tosyl-Phe-chloromethylketone], the “activation of NF-κB by TNF-α” value in experiment [4] was “prevented”. Besides, in experiment [1] (70Z/3 cells), the “induction of NF-κB activity in response to PMA” value was “fully inhibited” and the IC90 was determined as 20 µM. Also, the “NF-κB activity when added after stimulation” value in experiment [1] (70Z/3 cells, added after stimulation with PMA, IL-1 or LPS) is recorded as “did not strongly interfere”. Besides, the “activation of NF-κB by IL-1β and LPS” value in [1] (70Z/3 cells, treated 10 minutes before stimulation) is recorded as “prevented”. Moreover, in experiment [2] (25 µM, 1 hour pretreatment, 70Z/3 cells), the “decay of IκB-α in response to PMA” value is “fully inhibited”. In [5], the “inducible degradation of IκBα” value is “blocked both the inducible modification and degradation of IκBα completely”; the “inducible modification (phosphorylation) of IκBα” value is “blocked both the inducible modification and degradation of IκBα completely”. Moreover, the IC90 in experiment [6] amounted to 20 µM.

Regarding `CC(=O)NC(Cc1ccccc1)C(=O)Oc1ccc2ccccc2c1` (racemic) [N-Acetyl-DL-Phe-β-Naphthylester (APNE), N-Acetyl-DL-Phe-β-Naphthylester], the IC90 in experiment [6] turned out to be 200 µM.

On to `O=c1oc(Cl)c(Cl)c2ccccc12` [3,4-Dichloroisocoumarin], for which, in experiment [6], the IC90 amounted to 20 µM.

In the case of `COC(=O)C(CCCCN)NS(=O)(=O)c1ccc(C)cc1.Cl` (stereo not drawn) [tosyl-Lys-methylester], the “induction of NF-κB DNA-binding activity in response to PMA and TNF-α” value in experiment [6] is reported as “not effective”.

With `CCOC(=O)[C@H](Cc1ccc(O)cc1)NC(=O)c1ccccc1` [N-Benzoyl-L-Tyr-ethylester (BTEE), N-Benzoyl-L-Tyr-ethylester], the IC90 in experiment [6] was found to be 1000 µM.

Take `Cc1ccc(S(=O)(=O)NC(CCCCN)C(=O)CCl)cc1` (stereo not drawn) [TLCK, Tosyl-Lys-chloromethylketone]: in [1] (70Z/3 cells), the “induction of NF-κB activity in response to PMA” value is “could not prevent” and the IC90 was 100 µM. In addition, the IC90 in [6] turned out to be 100 µM.

Regarding `CCCCCCCCCCCCCC(=O)O[C@@H]1[C@@H](C)[C@@]2(O)[C@@H](C=C(CO)C[C@]3(O)C(=O)C(C)=C[C@@H]23)[C@@H]2C(C)(C)[C@]12OC(C)=O` [PMA, phorbol 12-myristate 13-acetate], the “time after stimulation until most of the IκBα had decayed” value in experiment [2] (70Z/3 cells) is at most 5 min. Besides, in experiment [2] (protein synthesis-arrested (CHX) 70Z/3 cells stimulated with PMA, phase of fastest decay), the “half-life of IκBα” value was 1.5 min. In addition, the “enhancement of reporter activity (HIV-LTR-Luc) over basal” value in experiment [7] is listed as “two-fold”.

As to “benzyloxycarbonyl-Leu-Leu-Phenylalaninal [ZLLF]”, in [8] (1µM to 200 µM, 5 hours pretreatment, TNFα 15ng/ml 20 minutes), the “TNFα induced NF-κB activity” value is recorded as “inhibited TNFα induced NF-κB activity in a dose-dependent manner”. In addition, in experiment [8] (densitometric scanning of the EMSA and Western blots, TNFα, read-out: IC₅₀), the IC50 is 3.4 µM. Also, in [9], the “rank as inhibitor of proteolysis of IκBα” value is on record as “the most potent inhibitor”.

Turning to `CC(=O)N[C@@H](CC(C)C)C(=O)N[C@@H](CC(C)C)C(=O)N[C@H](C=O)CCCNC(=N)N` [Leupeptin], the “induction of NF-κB DNA-binding activity in response to PMA and TNF-α” value in [6] was “not effective”.
